Test results published in patent US10376553B2, “Pharmaceutical composition for preventing and treating chronic obstructive lung disease containing, as active ingredient, Magnoliae flos extract, fraction, or active fraction thereof” (KOREA RESEARCH INSTITUTE OF BIOSCIENCE AND BIOTECHNOLOGY, priority 2015, dated 2019).
Several values for one entry are separate records, joined by “and”; a condition that tells them apart may be missing. Equal values may be shown once.

Experiments:
Type in all cases: in vivo, C57BL/6N mice
[1] = system: inflammatory cells in the bronchoalveolar lavage fluid; experiment: Inflammatory cells in bronchoalveolar lavage fluid of the COPD mouse model (cigarette smoke + LPS); settings: 10 mg/kg p.o., BALF, vs COPD-induced group
Protocol: Six-week-old male SPF (specific pathogen-free) C57BL/6N mice (22 to 24 g) were supplied by Koatech (Korea). These animals were fed with a sufficient amount of solid feed (no antibiotics, Samyang Feed Co.) and water until the day of the experiment. They were allowed to adapt for 1 week in a light-dark cycle environment at a temperature of 22±2° C. and a humidity of 55±15%, and then subjected to the experiment.
The animal model was exposed to cigarette smoke to induce chronic obstructive pulmonary disease. 3R4F Kentuchy Reference Cigarettes as standard cigarettes for use to generate cigarette smoke were supplied by University of California (USA). The standard cigarettes contain 9.4 mg of tar, 11 mg of total particle matter (TPM), and 12 mg of carbon monoxide per 1 cigarette. The standard cigarettes were used after harmonization for 48 hours to 72 hours at a temperature of 22±1° C. and a humidity of 60±2%. Further, Cigarette Smoke Generator manufactured by Korea BioLink (Korea) was used for exposure to cigarette smoke. Cigarette smoke was inhaled for 1 hour (8 pcs/hour) for 7 days from 1 hour after oral administration of a sample. 10 μg of LPS (lipopolysaccharide) in PBS 50 μL was injected intranasally to each mouse on the 4th day of the experiment after the mouse was anesthetized with zoletyl 1 hour before the exposure to cigarette smoke. The smoking condition was 8 puffs per 1 standard cigarette (volume: 45 mL, duration: 2 seconds, and interval: 1 time/min).
The active fraction of Magnoliae flos (15, 30 mg/kg) and roflumilast (10 mg/kg) as therapeutic substances were dissolved in 0.5% sodium carboxymethyl cellulose and were orally administered 1 hour before the exposure to cigarette smoke.
The experimental groups were divided into (i) normal control (NC) group; (ii) cigarette smoke+LPS exposure group (COPD); (iii) experimental group administered with roflumilast (ROF) (10 mg/kg, p.o) 1 hour before the exposure to cigarette smoke+LPS; and (iv) experimental group administered with the active fraction of Magnoliae flos (15, 30 mg/kg, p.o; Magnoliae flos 15 and Magnoliae flos 30) 1 hour before the exposure to cigarette smoke+LPS. […] Then, they were administered in the same manner as above.
The bronchial alveolar lavage fluid was separated from the animal model treated with the active fraction and the compounds of Magnoliae flos in <Test Example 6-2> above in the following manner, and the number of inflammatory cells was measured.
Specifically, a mouse sonde was inserted into the bronchial tube, a 1 mL syringe containing 0.7 mL of DPBS (Dulbecco's Phosphate-Buffered Saline) was connected thereto, and DPBS was injected into the lung. The injected DPBS was recovered, and this procedure was repeated twice. The bronchoalveolar lavage fluid separated by DPBS was centrifuged at 1,500 rpm for 15 minutes to make a cell pellet. The supernatant was stored frozen at −70° C. for cytokine analysis. Each cell obtained was suspended in DPBS, attached to a slide glass using a cytospin centrifuge, and Diff-Quik stained. The number of inflammatory cells in each sample was counted through microscopic examination, and the inhibition rate was calculated according to the following Equation 3.
Inhibition rate=(Value of COPD-induced group−value of target substance administered group)×100/(Value of COPD-induced group) [Equation 3]

reactive oxygen species = experiment: Production of active oxygen species in BALF of the COPD model (DCF-DA); settings: 10 mg/kg p.o., vs COPD-induced group
Protocol: Production of active oxygen species in the bronchoalveolar lavage fluid obtained in <Test Example 6-3> above was confirmed by the following method.
Specifically, the separated BALF (200 μL) was treated to the final concentration of 20 μM of DCF-DA (dihydrodichlorofluorescein diacetate, Sigma-Aldrich, USA), followed by culturing for 30 minutes and measurement using Fluorescence (Molecular Device, USA). The inhibition rate was calculated by Equation 3 above.

IL-6 = IL-6 level in BALF of the COPD model (ELISA); settings: vs COPD-induced group
Protocol: (§1) Cytokines were measured in the cell supernatant obtained in <Test Example 6-3> above by the following method. Specifically, the levels of IL-6 (R & D System, USA) and TNF-α (BD Bioscience, USA) in the separated BALF were measured by enzyme-linked immuno-sorbent assay (ELISA). Each cytokine analysis was carried out according to the manufacturer's test method.

TNF-α = TNF-α level in BALF of the COPD model (ELISA); settings: 10 mg/kg p.o., BALF, vs COPD-induced group
Protocol: as §1

[2] = system: infiltration of inflammatory cells in the lung tissue; experiment: Lung tissue histopathology (H&E) in the COPD model; settings: vs COPD-induced group
Protocol: Specifically, the lung was taken out and immediately fixed in a 10% formaldehyde solution, which was then sliced and washed with running water for 8 hours. It was then embedded in […] and Hematoxylin & Eosin stained, and the pathological changes in the lung tissue were examined using an optical microscope.

O=C(Nc1c(Cl)cncc1Cl)c1ccc(OC(F)F)c(OCC2CC2)c1 [ROF, roflumilast, reference compound]
Inhibition rate of inflammatory cell infiltration (%) Macrophage [1]: 36.9 ± 15.0% and 30.6 ± 9.9%
Inhibition rate of inflammatory cell infiltration (%) Neutrophil [1]: 31.9 ± 7.6% and 37.4 ± 8.3%
Inhibition rate of inflammatory cell infiltration (%) Total inflammatory cells [1]: 34.9 ± 4.6% and 39.4 ± 7.2%
Active oxygen inhibition rate (%) (reactive oxygen species): 25.9 ± 4.3%
IL-6 in the bronchoalveolar lavage fluid (in words) (IL-6): decreased
TNF-α inhibition rate (%) (TNF-α): 44.8 ± 3.8% and 30.8 ± 5.9%
infiltration of inflammatory cells around the alveoli and bronchi (in words) [2]: reduced
